From patent publication US20250319100A1, “ANTI-TUMOR COMBINED PREPARATION COMPRISING HYDROXYPROGESTERONE CAPROATE AND USE THEREOF” (SHENZHEN EVERGREEN THERAPEUTICS CO., LTD., priority 2021, published 2025)

How the values were obtained:
4T1-hPD-L1 cells = experiment: Tumor growth inhibition in Balb/c mice subcutaneously inoculated with 4T1 cells overexpressing human PD-L1; assay type: in vivo; settings: for Tumor growth inhibition (result in words): FIG. 1, tumor volume growth trend post-administration
Description: Antibody Anti-PD-L1 was purchased from Rongchang Biopharmaceuticals (Yantai) Co., Ltd., batch number: RC98-1-A20170426, with a storage solution concentration of 6.87 mg/ml, dissolved in 0.9% sodium chloride solution. Prior to each administration, the Anti-PD-L1 was prepared by diluting it in 0.9% sodium chloride solution to obtain a concentration of 1 mg/ml.
Hydroxyprogesterone Caproate (OHPC) was purchased from Hongyan Pharmaceutical and Chemical Co., Ltd., as a powder. Prior to each administration, OHPC powder was dissolved in DMSO. Once fully dissolved, it was diluted in sesame oil to obtain an OHPC concentration of 4 mg/ml for the investigational drug solution.
Murine breast cancer 4T1 cells were purchased from Beijing Biosynthgene Biotech Co., Ltd. Cells were cultured at 37° C. and 5% CO2 in DMEM culture medium containing 10% inactivated fetal bovine serum. The 4T1 cells were genetically modified using conventional methods to overexpress human PD-L1, and these cells were named 4T1-hPD-1.
Female Balb/c mice (6-9 weeks old, weighing 16-22 g), SPF grade, were subcutaneously inoculated with 5×10^4 cells/0.1 ml concentration of 4T1-hPD-1 cells suspended in PBS at a volume of 0.1 ml on the right side. When the average tumor volume reached approximately 100 mm3, appropriate mice were selected based on tumor volume and weight and were evenly distributed into four experimental groups, each with 8 mice. Drug administration commenced on the same day as outlined in the table below:
Throughout the observation period, tumor volume and animal weight were measured weekly, and the values were recorded. Upon completion of the observation period, the experiment was concluded.
Measurements of tumor volume were conducted twice a week post-grouping using a vernier caliper. Prior to euthanasia, tumor dimensions including the longest and shortest diameters were measured. The formula used to calculate tumor volume: Tumor Volume=0.5×Longest Diameter×Shortest Diameter^2.
Ti represents the mean tumor volume of the treatment group on day i of drug administration, TO denotes the mean tumor volume of the treatment group on day 0 of drug administration. Vi stands for the mean tumor volume of the solvent control group on day i of drug administration, and VO indicates the mean tumor volume of the solvent control group on day 0 of drug administration.
Original data from observations and measurements were recorded. Analysis and processing were based on this raw data. Results were expressed as Mean±Standard Error of Mean (SEM). Statistical analysis was performed on tumor volume data, where P<0.05 was considered statistically significant. Analysis was conducted considering both statistical and biological significance.

[1] = system: CD8+ T cells in tumor tissue; experiment: Infiltration of CD8+ T cells in tumor tissue (CD8 staining of paraffin tumor sections); assay type: in vivo, Balb/c mice; settings: FIGS. 2 and 3, CD8 staining density IOD/area, p<0.01 OHPC group vs control group
Description: FIG. 2 illustrates the infiltration of CD8 T cells in mouse tumors post-administration (400× magnification). FIG. 3 presents the analysis of CD8 staining density on tumor sections after administration, represented in integrated optical density (IOD)/area, where ** denotes p<0.01 compared between the OHPC group and the control group. At the conclusion of the experiment, tumor tissue was embedded in paraffin, sectioned, and stained for CD markers. This was conducted to compare the infiltration of CD8+ T cells within tumors across different groups.

Structure (SMILES): CCCCCC(=O)O[C@]1(C(C)=O)CC[C@H]2[C@@H]3CCC4=CC(=O)CC[C@]4(C)[C@H]3CC[C@@]21C [OHPC, 17α-Hydroxyprogesterone caproate]
- Tumor Volume Day 17 (4T1-hPD-L1 cells; Day 17, Anti-PD-L1 10 mg/kg intravenous and/or OHPC 20 mg/kg intramuscular, twice per week, Mean ± Standard Error): 1203 ± 384 mm^3
- TGITV (tumor growth inhibition rate by tumor volume) (4T1-hPD-L1 cells; Day 17 versus vehicle (PBS) control, Anti-PD-L1 10 mg/kg intravenous and/or OHPC 20 mg/kg intramuscular, twice per week): −14%
- Tumor growth inhibition (result in words) (4T1-hPD-L1 cells): no inhibitory effect
- Tumor growth inhibition (result in words) (4T1-hPD-L1 cells; listed as hydroxyprogesterone caproate): augments the anti-tumor activity of the monoclonal antibody Anti-PD-L1
- Tumor Volume Pre-administration (4T1-hPD-L1 cells; baseline before first dose, Mean ± Standard Error, 8 mice per group): 87 ± 24 mm^3
- Infiltration of CD8+ T cells in tumor tissue (result in words) [1]: significantly enhances the infiltration of CD8+ T cells
- Infiltration of CD8+ T cells in tumor tissue (result in words) ([1]; listed as Hydroxyprogesterone Caproate (OHPC)): notably enhanced the infiltration of CD8+ T cells
